How the values were obtained:
[1] = biological target: T1, human cytoplasmic dynein 2 (GFP-dynein 2, amino acids 1091–4307) (Homo sapiens, UniProt Q8NCM8); test: Microtubule gliding (motility) assay with GFP-dynein 2; assay type: biochemical; details: 0.05 mg/mL casein; for Velocity of dynein-2-driven microtubule gliding: 20 µM compound, solvent control 128 ± 14 nm/s, mean ± S.D.; for Velocity of dynein-2-driven microtubule gliding / IC50: 1 mM MgATP, 2% DMSO; for IC50: read-out: IC50, inhibition of GFP-dynein-2-driven motility
T1 construct: (AA 1091–4307, uniprot: Q8NCM8); protein A tag (followed by TEV-cleavable linker) (N, cleaved yes); made in house; host or cells: Sf9 insect cells (baculovirus)
Experimental: We purified an N-terminally GFP-tagged motor-domain construct of dynein 2 using an insect cell expression system ([Schmidt et al., 2015]). The GFP tag in this construct (GFP-dynein 2, amino acids 1091–4307) allowed the motor protein to be immobilized on passivated glass coverslips used in microtubule gliding assays. GFP-dynein 2 was obtained as a mono-disperse peak by gel filtration (Figure 2D and E). In the presence of ATP (1 mM), this protein moved microtubules with a velocity of 128 ± 14 nm/s (mean ± SD, Figure 2G and I).
Reaction setup: A coverslip-based motility assay was adapted from similar assays reported previously ([Firestone et al., 2012]; [Schmidt et al., 2015]). A flow chamber assembled on a pre-cleaned microscope coverslide (3–5 µL chamber volume) was hydrated with buffer A (25 mM PIPES, 30 mM KCl, 5 mM MgCl2, 1 mM EGTA, 0.01% Triton X-100, 1 mM DTT, 20 µM taxol, pH 7.0 with KOH). Anti-GFP antibody (0.4 mg/mL, affinity purified rabbit antibody) was flowed into the chamber and allowed to adhere non-specifically to the glass for 20 s. The surface was blocked using 0.5 mg/mL α-casein in buffer A. Excess protein was then washed away with buffer A. GFP-dynein motor domain was diluted in buffer A supplemented with 1 mM DTT and 0.1 mM ATP (2 mM DTT final; GFP-dynein 2 diluted to: 180 nM; GFP-dynein 1 diluted to: 60 nM), flowed into the chamber and allowed to bind for 20 s. Excess protein was washed away with buffer A. Reaction mix (25 mM PIPES, 90 mM KCl, 6 mM MgCl2, 1 mM EGTA, 0.01% Triton X-100, 3 mM DTT, 20 µM taxol, 1 mM ATP, 1x oxygen scavenging system components [4.5 mg/mL glucose, 35 µg/mL catalase, 200 µg/mL glucose oxidase], 2% final DMSO [v/v] with compounds at appropriate concentrations, 0.05 mg/mL α-casein, microtubules [rhodamine labeled, purified from bovine brain, GMP-CPP and Taxol-stabilized], pH 7.0 with KOH) was flowed into the chamber using ~4 chamber volumes. For experiments shown in Figure 4—figure supplement 1, α-casein concentration in reaction mix was 0.5 mg/mL and all other parameters were held constant.
For reversibility experiments, motility in the presence of 5 µM 8 was observed as above, and upon completion of imaging, the chamber, fresh buffer A supplemented with 1 mM ATP was flowed into the chamber and incubated for 1 min; this wash and incubation cycle was repeated twice. Reaction mix containing DMSO (no compound) was flowed into the chamber using ~4 chamber volumes. The chamber was sealed with valap and returned to the microscope.
Microscopy conditions: Following addition of reaction mix, microtubules were allowed to bind for 5 min before imaging. For reversibility experiments, microtubules were allowed to bind for 10 min before imaging. Videos were taken on a Zeiss Axiovert 200M wide-field microscope equipped with a Zeiss 100x/1.45 NA α-Plan-Fluar objective. Data were captured with an EM-CCD camera (iXon DU-897, Andor Technology) with a 0.2 s exposure time and frame rate of 0.25–0.5/second. Four 10–20 s videos were captured per experimental condition. Velocities were measured using the kymograph tool in FIJI ([Schindelin et al., 2012]). Data analysis is discussed below under ‘General data analysis procedures.’
Microtubule velocity measurements: the tracks of microtubules were traced and converted to kymographs (x axis-displacement, y axis-time) using the kymograph function of FIJI (RRID: SCR_002285). The angle formed between an edge of a microtubule and the horizontal was measured. This angle, θ, was converted into velocity using the following relationship: velocity = 1/|tangent(θ)| * (unit pixel distance)/(time interval between frames).
The calibrated pixel distance was 0.152 µm and the time interval between frames was either 2 or 4 s. The velocities of at least seven microtubules were measured per field of view, if sufficient tracks could be found. In cases where fewer than seven microtubules were found in a field of view, velocities of all microtubules on the coverslip were measured. […]

[2] = biological target: T2, His-dynein 1 (Homo sapiens, UniProt Q14204); test: Basal ATPase activity of His-dynein 1 (wild-type); assay type: biochemical; details: 40 µM compound, 1 mM MgATP, 2% DMSO; control 0.66 ± 0.1 s^−1
T2 construct: (wild-type, K1912A, K2601A, AA 1320–4646, uniprot: Q14204); made in house; host or cells: Sf9 insect cells (baculovirus)
Experimental: ATPase assays using recombinant Dynein 1 (wild-type and mutants) were performed in a buffer containing 25 mM PIPES pH7.0, 30 mM KCl, 1 mM EGTA, 5 mM MgCl2, 0.01% triton X-100, 1 mM DTT, and 20–30 µM taxol (if microtubules were present). For typical conditions, enzyme was incubated with varying concentrations of inhibitor in buffer containing 2% DMSO for 10 min in a volume of 10 μL. When microtubules were present, they were polymerized by stepwise addition of taxol and high concentrations of DMSO (30% final during polymerization reactions), and re-suspended following centrifugation in ATPase buffer to a concentration up to threefold above the final concentration used in the reaction (bovine brain tubulin, no fluoresecent label). For microtubule-stimulated reactions in dose-response format, reactions were assembled by 1:1:1 mixture of 3x enzyme stock, 3x compound stock (in buffer with 6% DMSO), and 3x microtubule stock to each well. For microtubule-stimulated ATPase assays at tubulin concentrations > 2.5 µM, enzyme stock was supplemented with compound stock in pure DMSO (resulting in an intermediate DMSO concentration of 6%), and then the microtubule stock was added. […]
Assembled reaction mixtures (including enzyme, compound, and microtubules, if present) were incubated for 10 min before addition of ATP. […] The fraction of γ-phosphate hydrolyzed in each condition was quantified using FIJI.

T1 sequence (Q8NCM8 1091-4307): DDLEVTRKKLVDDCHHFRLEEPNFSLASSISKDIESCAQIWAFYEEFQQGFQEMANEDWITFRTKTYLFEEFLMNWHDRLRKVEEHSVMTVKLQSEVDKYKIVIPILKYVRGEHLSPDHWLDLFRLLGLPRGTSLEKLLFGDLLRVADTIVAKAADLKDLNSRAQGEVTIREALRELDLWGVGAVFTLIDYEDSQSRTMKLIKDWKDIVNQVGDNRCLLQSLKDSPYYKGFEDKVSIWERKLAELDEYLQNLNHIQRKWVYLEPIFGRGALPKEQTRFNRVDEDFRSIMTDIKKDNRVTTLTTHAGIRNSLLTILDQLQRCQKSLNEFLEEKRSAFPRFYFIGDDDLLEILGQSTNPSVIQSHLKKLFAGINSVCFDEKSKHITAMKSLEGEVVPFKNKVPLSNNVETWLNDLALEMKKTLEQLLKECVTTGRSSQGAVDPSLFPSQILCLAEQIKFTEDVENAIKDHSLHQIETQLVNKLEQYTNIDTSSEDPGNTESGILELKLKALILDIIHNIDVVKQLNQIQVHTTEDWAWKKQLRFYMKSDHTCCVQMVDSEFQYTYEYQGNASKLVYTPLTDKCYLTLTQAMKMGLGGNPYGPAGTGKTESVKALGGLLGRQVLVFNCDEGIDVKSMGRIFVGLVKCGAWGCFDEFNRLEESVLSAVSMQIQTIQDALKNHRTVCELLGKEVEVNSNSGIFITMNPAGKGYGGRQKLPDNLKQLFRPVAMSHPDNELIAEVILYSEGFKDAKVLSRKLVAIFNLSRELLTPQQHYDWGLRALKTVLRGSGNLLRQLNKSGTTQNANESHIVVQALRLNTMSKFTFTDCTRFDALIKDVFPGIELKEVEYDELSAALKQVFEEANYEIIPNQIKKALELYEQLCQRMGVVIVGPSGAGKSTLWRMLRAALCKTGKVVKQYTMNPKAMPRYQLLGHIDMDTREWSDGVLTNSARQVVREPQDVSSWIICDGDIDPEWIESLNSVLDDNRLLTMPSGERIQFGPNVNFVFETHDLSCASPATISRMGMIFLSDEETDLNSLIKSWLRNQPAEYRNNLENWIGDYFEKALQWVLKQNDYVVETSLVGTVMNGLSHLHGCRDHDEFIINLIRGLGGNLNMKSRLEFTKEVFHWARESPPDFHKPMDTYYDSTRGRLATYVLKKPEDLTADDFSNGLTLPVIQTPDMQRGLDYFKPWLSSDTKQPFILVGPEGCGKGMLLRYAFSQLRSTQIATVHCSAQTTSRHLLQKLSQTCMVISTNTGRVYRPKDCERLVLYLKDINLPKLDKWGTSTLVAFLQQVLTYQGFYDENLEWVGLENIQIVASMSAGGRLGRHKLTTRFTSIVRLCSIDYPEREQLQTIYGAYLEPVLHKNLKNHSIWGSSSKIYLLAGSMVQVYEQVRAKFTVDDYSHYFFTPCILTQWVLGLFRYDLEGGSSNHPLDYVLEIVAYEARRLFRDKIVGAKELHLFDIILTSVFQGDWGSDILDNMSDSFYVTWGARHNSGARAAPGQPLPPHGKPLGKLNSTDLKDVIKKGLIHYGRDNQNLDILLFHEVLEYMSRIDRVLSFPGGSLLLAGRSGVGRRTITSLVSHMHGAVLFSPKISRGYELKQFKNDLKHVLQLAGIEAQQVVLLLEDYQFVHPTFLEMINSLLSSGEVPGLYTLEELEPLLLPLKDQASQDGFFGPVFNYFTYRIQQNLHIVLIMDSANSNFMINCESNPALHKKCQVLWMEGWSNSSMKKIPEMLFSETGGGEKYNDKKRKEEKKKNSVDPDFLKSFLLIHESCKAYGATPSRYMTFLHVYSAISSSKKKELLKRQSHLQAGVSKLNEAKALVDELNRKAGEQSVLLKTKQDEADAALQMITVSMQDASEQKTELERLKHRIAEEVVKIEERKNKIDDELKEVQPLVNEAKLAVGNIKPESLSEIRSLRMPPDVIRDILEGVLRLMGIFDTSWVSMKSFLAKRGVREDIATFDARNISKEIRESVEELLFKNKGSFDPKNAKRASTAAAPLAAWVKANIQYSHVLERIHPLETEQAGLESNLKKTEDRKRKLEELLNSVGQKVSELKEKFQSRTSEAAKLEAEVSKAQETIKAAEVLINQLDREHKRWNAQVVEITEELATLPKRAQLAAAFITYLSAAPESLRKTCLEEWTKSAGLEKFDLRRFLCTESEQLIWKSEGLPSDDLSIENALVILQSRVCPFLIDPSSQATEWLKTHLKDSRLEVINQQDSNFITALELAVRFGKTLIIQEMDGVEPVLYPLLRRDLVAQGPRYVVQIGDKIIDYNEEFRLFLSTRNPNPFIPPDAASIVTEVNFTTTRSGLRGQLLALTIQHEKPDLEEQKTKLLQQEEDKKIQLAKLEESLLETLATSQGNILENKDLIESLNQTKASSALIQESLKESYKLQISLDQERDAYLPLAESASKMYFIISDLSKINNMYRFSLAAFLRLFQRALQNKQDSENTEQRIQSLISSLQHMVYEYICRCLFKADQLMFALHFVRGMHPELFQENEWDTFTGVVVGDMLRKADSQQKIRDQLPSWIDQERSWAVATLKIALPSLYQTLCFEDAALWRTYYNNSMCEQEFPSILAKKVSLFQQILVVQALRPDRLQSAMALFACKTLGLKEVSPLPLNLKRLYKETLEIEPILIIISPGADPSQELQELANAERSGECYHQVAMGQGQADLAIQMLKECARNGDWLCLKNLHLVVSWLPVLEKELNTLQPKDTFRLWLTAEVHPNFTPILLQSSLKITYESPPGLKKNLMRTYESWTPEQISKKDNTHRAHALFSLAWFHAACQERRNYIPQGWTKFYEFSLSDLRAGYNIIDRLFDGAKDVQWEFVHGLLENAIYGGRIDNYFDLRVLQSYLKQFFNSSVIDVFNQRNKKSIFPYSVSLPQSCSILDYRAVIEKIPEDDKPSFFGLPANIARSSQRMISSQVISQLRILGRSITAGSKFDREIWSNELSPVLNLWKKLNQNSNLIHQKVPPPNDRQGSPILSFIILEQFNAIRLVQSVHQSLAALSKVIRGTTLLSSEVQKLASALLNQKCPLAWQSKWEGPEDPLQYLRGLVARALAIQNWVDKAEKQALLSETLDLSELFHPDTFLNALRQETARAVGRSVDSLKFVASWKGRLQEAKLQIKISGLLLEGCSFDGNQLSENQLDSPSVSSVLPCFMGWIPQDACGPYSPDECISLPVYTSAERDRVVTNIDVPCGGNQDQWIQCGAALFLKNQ

Compound: N#Cc1c(C2(c3ccc(Cl)cc3)CC2)nn2c1[nH]c(=O)c1cc(I)ccc12 [Compound 8, 2-[1-(4-chlorophenyl)cyclopropyl]-7-iodo-5-oxo-4H-pyrazolo[1,5-a]quinazoline-3-carbonitrile]
- Reversibility of inhibition of dynein-2-dependent motility after washout ([1]; 5 µM 8, then washout, 1 mM ATP): reversed following washout
- Velocity of dynein-2-driven microtubule gliding [1]: 6 ± 2 nm/s
- IC50 [1]: 2.6 ± 1.3 µM
- inhibition at 40 µM [2]: ~30%

Compound: N#C/C(C(=O)c1ccc(Cl)cc1Cl)=C1\NC(=O)c2ccc(Cl)cc2N1 [ciliobrevin D, reference compound]
- Velocity of dynein-2-driven microtubule gliding [1]: 83 ± 10 nm/s
- IC50 [1]: 20 µM
- inhibition at 40 µM [2]: ~70%

Source: article PMC5478271, “Chemical structure-guided design of dynapyrazoles, cell-permeable dynein inhibitors with a unique mode of action” (eLife, 2017)
